Experimental data as given in article PMC12319374, “Efficient and Rapid Arylation of NH₂‐Unprotected Bromobisindole Ethanamines via Suzuki‐Miyaura Coupling: Generating New Leads Against Leishmania” (Chemistry (Weinheim an Der Bergstrasse, Germany), 2025).
Several values for one entry are separate records, joined by “and”; a condition that tells them apart may be missing. Equal values may be shown once. Entries after “also recorded” stand apart in the source; their conditions may differ.

How the values were obtained:
[1] = tested on: L. infantum promastigotes; settings: cited from earlier work; for IC50: read-out: IC50 against L. infantum promastigotes
[2] = tested on: L. infantum MHOM/TN/80/IPT1 promastigotes; assay: L. infantum promastigotes viability assay (MTS); type: cell-based, Leishmania infantum; settings: 72 h; for IC50 / inhibition at 20 µM: Leishmania infantum; for IC50: scalar dilutions 2:3 from 20 to 1.17 µM, mean (95% CI); for inhibition at 20 µM / Inhibition of L. infantum at 20 µM (%): single dose 20 µM
Experimental: (§1) Finally, eighteen compounds were first screened for efficacy against L. infantum MHOM/TN/80/IPT1 promastigotes at a single dose of 20 µM for 72 hours.
(§2) L. infantum MHOM/TN/80/IPT1 (WHO international reference strain) was purchased from ATCC (ATCC® 50134™) and was cultured in Evans's Modified Tobie Medium (EMTM) at 26–28 °C. To test the compounds, parasites were resuspended in RPMI-PY medium as described previously. The human monocytic cell line THP-1 (ECACC 88081201) was cultured in RPMI-1640 medium supplemented with 10% heat-inactivated Fetal Bovine Serum (FBS), 100 μg/ml streptomycin, […] and maintained in a humidified incubator at 37 °C and 5% CO2. All the cell culture reagents were purchased from Sigma-Aldrich (St. Louis, MO, USA).
Late log/stationary phase L. infantum promastigotes were resuspended in RPMI-PY medium at a density of 2.5×10^6 parasites/mL in 96-well plates (100μL/well). The anti-parasitic activity of the eighteen compounds of the library was initially investigated at a single dose of 20 μM for 72 h at 26 °C. […] Not treated parasites were included as negative control. As positive control, the anti-leishmanial drug miltefosine (Sigma-Aldrich, Milan, Italy) was used. Each condition was carried out in duplicate. To evaluate the promastigotes viability, the CellTiter 96H Aqueous Non-Radioactive Cell Proliferation Assay (Promega), based on the ability of viable cells to convert a soluble tetrazolium salt [3-(4.5-dimethylthiazol-2-yl)-5-(3-carboxymethoxy-phenyl)-2-(4-sulfophenyl)-2H-tetrazolium. MTS] to a formazan product, was performed. To this end, 20 μL of MTS/PMS (phenazinemethosulfate, Sigma-Aldrich) was added to 100 μL of culture medium and incubated at 26°C until formazan production. Absorbance was recorded on a Microplate Reader (Infinite® F50 Plus, Tecan) at 492 nm. The IC50 values were calculated using nonlinear regression curves in GraphPad Prism 8.0 (GraphPad Software,Inc., San Diego, CA). The equation used for data fitting was Y= 100/(1 + 10∧((Log IC50 −X)*HillSlope)) (hillslope not constrained), where X is the log of concentration and Y is the normalized response. […]

[3] = Evaluation of cytotoxicity on THP-1 cells (MTS); type: cell-based, human; settings: human; 72 h, scalar dilutions 1:2 from 100 to 3.12 µM; mean (95% CI); read-out: THP‐1 CC50 (µM) (95% CI)
Experimental: as §1, §2
(§3) The cytotoxicity of the compounds was assessed on THP-1 cells seeded at a density of 5 × 10^5 cells per mL, 100μL/well in a 96-well plate and treated for 72 h with 20 ng/mL phorbol myristic acid (PMA) to induce differentiation into macrophages like cells. After cell adhesion to the plate, each molecule was tested at 4, 20 and 100 μM for 72 h at 37 °C.
(§4) Three selected compounds were further evaluated at different concentration, obtained from scalar dilutions 1:2 (from 100 µM to 3.12 μM) for 72 h at 37°C. The negative control (untreated THP-1 cells) and the positive control (miltefosine) were included in each experiment. Each condition was carried out in duplicate. To evaluate the compounds cytotoxicity, the CellTiter 96H Aqueous Non-Radioactive Cell Proliferation Assay (Promega), was used as described before. […]

[4] = tested on: THP-1 cells; assay: Evaluation of cytotoxicity on THP-1 cells (MTS); type: cell-based, human; settings: for Cytotoxicity on THP‐1 (100, 20, 4 µM) (%): 72 h, PMA-differentiated THP-1; for SI (Selectivity index = CC50/IC50): CC50 THP-1 (72 h) / IC50 L. infantum promastigotes (72 h)
Experimental: as §1, §2, §3, §4

[5] = tested on: intracellular L. infantum amastigotes; assay: Anti-amastigote assay on infected THP-1 cells; type: cell-based, Leishmania infantum; settings: 2 µM, 72 h treatment, differentiated THP-1 infected 24 h
Experimental: Figure 2 Effect of 3ca, 3af, and 3aq on intracellular L. infantum amastigotes. Differentiated THP‐1 cells were infected for 24 hours at 37°C; then, the different compounds were added at 2 µM, and the efficacy on intracellular amastigotes was calculated after 72 hours of treatment. Miltefosine was used as a positive control. (A) Percentages of infection are presented as mean ± SD. Ordinary one‐way ANOVA with Dunnett's multiple comparisons test. *p ≤ 0.05, **p ≤ 0.01 *** p ≤ 0.001. (B) Representative merged images showing THP‐1 cells stained with Hoechst dye (blue) and Leishmania amastigotes stained with CFSE (green).
The activity of compounds 3af, 3ca, and 3aq against intracellular amastigotes was evaluated in THP-1 infected cells. Briefly, THP-1 cells were seeded in a 12-well plate with a density of 3 × 10^5 cells/well and, to induce differentiation into macrophage-like cells, were treated with 20 ng/mL phorbol myristic acid (PMA) for 48 h. After differentiation, cells were infected for 24 h with L. infantum MHOM/TN/80/IPT1 promastigotes stained with carboxyfluorescein succinimidyl ester (eBioscience™ CFSE, Invitrogen) as described in reference, with a parasite-to-cell ratio of 10:1. Non-internalized promastigotes were then removed through medium replacement, and infected cells were treated with 3af, 3ca, and 3aq or with the positive control miltefosine for 72 h at concentrations of 2, 10, and 20 μM. To monitor the infection, cells were washed, formaldehyde/methanol fixed, stained with Hoechst dye, and observed with a fluorescence microscope at 5X or 10X magnification. For each field, two images were acquired: one with excitation at 340-390 nm (for Hoechst dye) and the other with excitation at 460-495 nm (for CFSE). Automated cell counting of single-color images was performed with ImageJ software to monitor the rate of infection, which was determined by normalizing the amastigote count from each green (CFSE) image to the THP-1 cell count from the corresponding blue (Hoechst) image. At least 500 THP-1 cells were counted for each condition. […]

[6] = target: L. donovani DNA topoisomerase I; set-up: method as in PMID 17922678; settings: read-out: IC50 (DNA topoisomerase I poison); cited from earlier work
[7] = tested on: L. donovani; set-up: method as in PMID 23517732; settings: read-out: IC50 against L. donovani; cited from earlier work
[8] = tested on: human macrophage‐type THP‐1 cell; set-up: method as in PMID 38870204; settings: cited from earlier work
[9] = tested on: mammalian cells; set-up: method as in PMID 34984300; settings: cited from earlier work
[10] = tested on: Leishmania infection; set-up: method as in PMID 38870204; settings: mouse infection model; cited from earlier work
[11] = set-up: method as in PMID 38870204; settings: cited from earlier work

SMILES: NCC(c1c[nH]c2cc(Br)ccc12)c1c[nH]c2cc(Br)ccc12 [1a, 2,2‐bis(6‐bromo‐1H‐indol‐3‐yl) ethanamine]
- Activity against L. infantum [1]: active

SMILES: C=Cc1ccc(-c2ccc3c(C(CN)c4c[nH]c5cc(-c6ccc(C=C)cc6)ccc45)c[nH]c3c2)cc1 [3af, 2,2-bis(6-(4-vinylphenyl)-1H-indol-3-yl)ethan-1-amine]
- IC50 [2]: 1.1 µM
- inhibition at 20 µM [2]: > 98%
- Inhibition of L. infantum at 20 µM (%) [2]: 98.7%
- CC50 at 72 h [3]: 24 µM
- Cytotoxicity on THP‐1 (100, 20, 4 µM) (%) ([4]; 4 µM): −14%
- Cytotoxicity on THP‐1 (100, 20, 4 µM) (%) ([4]; 20 µM): 97%
- Cytotoxicity on THP‐1 (100, 20, 4 µM) (%) ([4]; 100 µM): 78%
- SI (Selectivity index = CC50/IC50) [4]: 21.8
- Effect on infection (intracellular amastigotes) [5]: significant reduction in the infection; also recorded: significant activity

SMILES: NCC(c1c[nH]c2cc(-c3cccc4[nH]ccc34)ccc12)c1c[nH]c2cc(-c3cccc4[nH]ccc34)ccc12 [3aq, 2,2-di(1H,1'H-[4,6'-biindol]-3'-yl)ethan-1-amine]
- IC50 [2]: 2.8 µM
- inhibition at 20 µM [2]: 96.9%
- CC50 at 72 h [3]: 14.6 µM
- Cytotoxicity on THP‐1 (100, 20, 4 µM) (%) ([4]; 4 µM): −16%
- Cytotoxicity on THP‐1 (100, 20, 4 µM) (%) ([4]; 20 µM): 72.9% and 73%
- Cytotoxicity on THP‐1 (100, 20, 4 µM) (%) ([4]; 100 µM): 89%
- SI (Selectivity index = CC50/IC50) [4]: 5.2
- Effect on infection (intracellular amastigotes) [5]: significant reduction in the infection; also recorded: significant activity

SMILES: NCC(c1c[nH]c2c(-c3ccccc3)cccc12)c1c[nH]c2c(-c3ccccc3)cccc12 [3ca, 2,2-bis(7-phenyl-1H-indol-3-yl)ethan-1-amine]
- IC50 [2]: 1.7 µM
- inhibition at 20 µM [2]: > 98%
- Inhibition of L. infantum at 20 µM (%) [2]: 98.0%
- CC50 at 72 h [3]: 18.1 µM
- Cytotoxicity on THP‐1 (100, 20, 4 µM) (%) ([4]; 4 µM): −19%
- Cytotoxicity on THP‐1 (100, 20, 4 µM) (%) ([4]; 20 µM): 98%
- Cytotoxicity on THP‐1 (100, 20, 4 µM) (%) ([4]; 100 µM): 89%
- SI (Selectivity index = CC50/IC50) [4]: 10.7
- Effect on infection (intracellular amastigotes) [5]: significant reduction in the infection; also recorded: significant activity

SMILES: c1ccc2c(Cc3c[nH]c4ccccc34)c[nH]c2c1 [DIM, 3,3′‐Diindolylmethane]
- IC50 [6]: 1.2 µM

SMILES: O=[N+]([O-])c1ccc(C(c2c[nH]c3ccc(I)cc23)c2c[nH]c3ccc(I)cc23)cc1 [II]
- IC50 [7]: < 10 µM

SMILES: Clc1ccc(CNCC(c2c[nH]c3cc(Br)ccc23)c2c[nH]c3cc(Br)ccc23)cc1 [I]
- IC50 [1]: 2.7 µM
- CC50 [8]: 11.7 µM

SMILES: CCOC(=O)c1c(C(=O)OC)cn(CC(c2cn(C)c3ccccc23)c2cn(C)c3ccccc23)c1C [URB1483]
- IC50 [1]: 3.7 µM
- Cytotoxicity in mammalian cells [9]: no quantifiable cytotoxicity
- Outcome of in vivo studies [10]: failed
- Water solubility [11]: poor
